According to patent US9839618B2, “Compositions and methods relating to proliferative diseases” (The Penn State Research Foundation, priority 2010, dated 2017):

How the values were obtained:
[1] = system: UACC 903 melanoma cells; assay: Natural product library NPL-480 primary screen, MTS viability; assay type: cell-based; conditions: Homo sapiens, 5 μmol/L, 24 hours, MTS assay, read-out: decrease of cell viability
Protocol: Natural product library NPL-480 (from TimTec Inc., Newark, Del.) consisting of 480 compounds derived from plants, animal, bacteria and fungus is screened using MTS assay to identify agents reducing cell growth of melanoma cells. Compounds of the NPL-480 library that are supplied as powders or oils are dissolved in DMSO to a stock concentration of 10 mM and stored at −20° C. DMSO concentrations in the reaction mixture are controlled to not exceed 0.5% (vol/vol). 5×10^3 UACC 903 melanoma cells are plated in 96 well plates for 24 hours followed by treatment with each compound at 5 μmol/L for 24 hours. Viability is measured using the MTS assay as described in Sharma, A. et al., Clin Cancer Res, 2009, 15:1674-85; and Madhunapantula, S. V. et al., Mol Cancer Ther, 2008, 7:1297-308. This primary screen identified 12 compounds effective to decrease melanoma cells viability by ˜50% or more.

[2] = system: UACC 903 and 1205 Lu melanoma cells; assay: Cell cycle analysis (propidium iodide, FACScan); assay type: cell-based, human; conditions: 2 or 3 μmol/L, 24 h
Protocol: Analysis of the effects of leelamine on cell cycle is performed by growing UACC 903 and 1205 Lu melanoma cells in 100-mm culture dishes followed by treatment with 2 or 3 μmol/L of leelamine for 24 h. Total floating and adherent cells are collected following trypsinization and stained using 1 mL propidium iodide solution containing 100 μg/mL propidium iodide; (Sigma, St Louis, Mo.), 20 μg/mL Ribonuclease A (Roche diagnostics, Indianapolis, Ind.) and 3 μg/mL Triton X-100 dissolved in 0.1% (W/V) sodium citrate for 30 m at 4° C. Stained cells are analyzed using the FACScan analyzer (Becton Dickinson, Franklin lakes, NJ) and data processed utilizing ModFit LT software (Verity Software House, Topsham, Me.) as described in Sharma, A. et al., Clin Cancer Res, 2009, 15:1674-85; and Madhunapantula, S. V. et al., Mol Cancer Ther, 2008, 7:1297-308.

[3] = system: UACC 903 and 1205 Lu cells; assay: BrdU incorporation proliferation assay; assay type: cell-based, human; conditions: 0.62 to 10 μmol/L, 24 hours
Protocol: The mechanistic basis of leelamine's activity to inhibit melanoma cell growth is determined by examining the effect of leelamine on 1) cell viability using the MTS assay; 2) proliferation using a BrdU incorporation assay; 3) apoptosis using an assay for caspase-3/7 activity; and 4) cell cycle analysis. The MTS assay as described in Sharma, A. et al., Clin Cancer Res, 2009, 15:1674-85; and Madhunapantula, S. V. et al., Mol Cancer Ther, 2008, 7:1297-308 is used to assay cell viability. Rates of proliferation and apoptosis are measured by seeding 5×10^3 cells in 96-well plates, followed by treatment with 0.62 to 10 μmol/L of leelamine for 24 hours. Proliferating and apoptotic cells are quantified using a colorimetric cell proliferation ELISA BrdU kit (Roche diagnostics, Indianapolis, Ind.) or Apo-ONE Homogenous caspase-3/7 assay kit (Promega, Madison, Wis.), respectively, as described in Sharma, A. et al., Clin Cancer Res, 2009, 15:1674-85; and Madhunapantula, S. V. et al., Mol Cancer Ther, 2008, 7:1297-308.

[4] = Toxicity assessment of leelamine; assay type: in vivo, Swiss Webster mice
Protocol: To assess toxicity, Swiss Webster (n=5) mice are intraperitoneally injected with 5 or 10 mg/kg body weight leelamine or with vehicle control (DMSO) every day for 4 weeks. Animals are weighed daily to ascertain the toxicity leading to changes in body weight. Blood is collected by cardiac puncture at the end of treatment and analyzed for the levels of ALP (alkaline phosphatase), ALT (alanine aminotransferase), AST (aspartate aminotransferase), CK (creatine kinase), CREA (creatinine) and GLU (glucose), parameters indicative of organ related toxicity, following systemic administration of 10-mg/Kg-body weight of leelamine, shown in FIG. 11. […] Vital organs including liver, spleen, kidney, intestine, lung and heart from control and experimental animals are collected at the end of the test period, formalin fixed, paraffin-embedded, hematoxylin/eosin stained and analyzed microscopically for changes in cellular morphology or tissue architecture as described in Sharma, A. et al., Clin Cancer Res, 2009, 15:1674-85; and Madhunapantula, S. V. et al., Mol Cancer Ther, 2008, 7:1297-308.

[5] = system: normal cells (melanocytes FOM103, fibroblasts FF2441, keratinocytes HFK); assay: MTS assay, leelamine on normal cells; assay type: cell-based; conditions: Homo sapiens, 72 hour exposure, read-out: concentration to kill 50% of normal cells
Protocol: The efficacy of leelamine to kill other cancer types is measured and the IC50 for cell lines derived from carcinomas of breast, lung, prostate, connective tissue, pancreas and colon determined. The MTS assay as described in Sharma, A. et al., Clin Cancer Res, 2009, 15:1674-85; and Madhunapantula, S. V. et al., Mol Cancer Ther, 2008, 7:1297-308 is used to establish the IC50 at 24, 48 and 72 hours of leelamine treatment for normal human epidermal melanocytes (FOM103), normal skin fibroblast cells (FF2441), normal skin keratinocytes (HFK) and compared to melanocytic lesion cells from the radial-, vertical- and metastatic melanoma stages. […] IC50 values for each compound in μmol/L for respective cell lines are measured from three independent experiments using GraphPad Prism version 4.01 (GraphPad Software, La Jolla, Calif.). […]
5×10^3 cells per well in 100 μL of media are plated and grown in a 96-well plate for 48 to 72 hours and treated with either DMSO vehicle control or 0.62 to 40 μmol/L of leelamine for 24, 48 or 72 hours. IC50 values for each compound in μmol/L for respective cell lines are measured from three independent experiments using GraphPad Prism version 4.01 (GraphPad Software, La Jolla, Calif.).

[6] = i.p. 10 mg/kg daily for 4 weeks

CC(C)c1ccc2c(c1)CCC1[C@](C)(CN)CCC[C@]21C (stereo partly drawn) [Leelamine, [(1R,4aS)-1,4a-dimethyl-7-(propan-2-yl)-1,2,3,4,4a,9,10,10a-octahydrophenanthren-1-yl]methanamine]
cytotoxicity at 5 µM [1]: ~95% | cell cycle distribution [2]: increased percentage of sub-G0-G1 and G0/G1 cell populations, with a corresponding decrease in S-phase population | proliferation (BrdU incorporation) [3]: decrease proliferation | blood ALP, ALT, AST, CK, CREA, GLU [4, 6]: No significant differences | histology of liver, spleen, kidney, intestine, lung, heart [4, 6]: did not significantly alter cell morphology or overall structure | body weights ([4]; i.p. 5 or 10 mg/kg every day for 4 weeks): no significant differences | IC50 [5]: 5 to 8 µM
